“Also recorded” adds a separate entry of the source.
Key:
[1] = system: ell seedlings; experiment: Exogenous feeding of brassinolide to ell seedlings germinated on agar plates; format: in vivo, Arabidopsis; details: 1 μM in growth medium (agar plates); dark or light
Description: FIGS. 13A-13B are photographs showing that the ell phenotype was not corrected by exogenous feeding of brassinolide (1 μM) in either dark (FIG. 13A) or light (FIG. 13B). From left to right in FIGS. 13A-13B: wild-type; ell; wild-type+brassinolide; and ell+brassinolide.
To determine whether the ell mutant phenotype is corrected by exogenous feeding of brassinolide, we germinated ell seedlings on agar plates containing 1 μM brassinolide or 1 μM 24-epibrassinolide (Li et al., Science 272: 398, 1996). […] Thus, it appears that steroid compounds other than BRs are needed to restore an ell mutant to a normal growth and development phenotype, as reflected by the pleiotropic phenotypes such as stunted roots (FIG. 2) and impaired embryogenesis (FIGS. 7A-7F).

[2] = system: wild-type seedlings; experiment: Treatment of wild-type seedlings with synthetic cytokinin (phenocopy of ell mutant morphology); format: in vivo, Arabidopsis; details: 30 μM; in the dark or light
Description: From left to right in both FIGS. 1A-1B: wild-type plant; wild-type plant+2ip; ell; and ell+2ip.

Row | Structure (SMILES) | correction of the ell mutant phenotype by exogenous feeding [1] | ell mutant seedling morphology phenocopied in wild-type seedlings [2]
1 | CC(C)[C@@H](C)[C@@H](O)[C@H](O)[C@@H](C)[C@H]1CC[C@H]2[C@@H]3COC(=O)[C@H]4C[C@H](O)[C@H](O)C[C@]4(C)[C@H]3CC[C@]12C [24-epibrassinolide] | did not alter the mutant phenotype | –
2 | CC(C)[C@H](C)[C@@H](O)[C@H](O)[C@@H](C)[C@H]1CC[C@H]2[C@@H]3COC(=O)[C@H]4C[C@H](O)[C@H](O)C[C@]4(C)[C@H]3CC[C@]12C [brassinolide] | not corrected; also recorded: did not alter the mutant phenotype | –
3 | CC(C)=CCNc1ncnc2nc[nH]c12 [2ip, dimethylallylamino-purine] | – | phenocopied
